# Test results reported in patent US9580437B2, “Triazolopyrimidine compounds and uses thereof” (Novartis AG, priority 2014, dated 2017).
# What was measured:
# [1] = test system: H3K27 methylation in G401 cell; experiment: ELISA (H3K27 methylation) assay in G401 cells; format: cell-based, human; conditions: read-out: (c) IC50 ELISA Qualified
# Method: (§1) A 6 μL solution of 3 μM of the peptide substrate H3K27Me0 (histone H3[21-44]-biotin) in reaction buffer was added to initiate each reaction. […] ELISA (H3K27 Methylation) Assay
# [2] = molecular target: wild type PRC2 (wtPRC2) complex (Homo sapiens (Human), UniProt O75530); experiment: EED LC-MS assay; format: biochemical; conditions: read-out: (b) IC50 EED LC-MS Qualified
# Chain of wild type PRC2 (wtPRC2) complex (O75530 whole entry): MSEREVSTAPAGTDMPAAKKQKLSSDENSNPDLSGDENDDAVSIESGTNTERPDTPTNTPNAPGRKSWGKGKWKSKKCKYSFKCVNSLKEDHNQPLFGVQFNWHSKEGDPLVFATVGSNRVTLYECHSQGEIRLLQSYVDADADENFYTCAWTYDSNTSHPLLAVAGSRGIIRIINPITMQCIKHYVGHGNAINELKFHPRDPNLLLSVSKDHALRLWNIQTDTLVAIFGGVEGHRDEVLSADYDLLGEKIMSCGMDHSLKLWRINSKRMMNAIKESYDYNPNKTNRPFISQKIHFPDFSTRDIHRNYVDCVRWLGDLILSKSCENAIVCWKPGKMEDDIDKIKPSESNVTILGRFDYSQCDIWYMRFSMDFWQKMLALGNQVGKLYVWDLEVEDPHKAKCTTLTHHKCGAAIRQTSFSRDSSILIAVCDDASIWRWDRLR
# Chain of wild type PRC2 (wtPRC2) complex (Q15910 whole entry partner): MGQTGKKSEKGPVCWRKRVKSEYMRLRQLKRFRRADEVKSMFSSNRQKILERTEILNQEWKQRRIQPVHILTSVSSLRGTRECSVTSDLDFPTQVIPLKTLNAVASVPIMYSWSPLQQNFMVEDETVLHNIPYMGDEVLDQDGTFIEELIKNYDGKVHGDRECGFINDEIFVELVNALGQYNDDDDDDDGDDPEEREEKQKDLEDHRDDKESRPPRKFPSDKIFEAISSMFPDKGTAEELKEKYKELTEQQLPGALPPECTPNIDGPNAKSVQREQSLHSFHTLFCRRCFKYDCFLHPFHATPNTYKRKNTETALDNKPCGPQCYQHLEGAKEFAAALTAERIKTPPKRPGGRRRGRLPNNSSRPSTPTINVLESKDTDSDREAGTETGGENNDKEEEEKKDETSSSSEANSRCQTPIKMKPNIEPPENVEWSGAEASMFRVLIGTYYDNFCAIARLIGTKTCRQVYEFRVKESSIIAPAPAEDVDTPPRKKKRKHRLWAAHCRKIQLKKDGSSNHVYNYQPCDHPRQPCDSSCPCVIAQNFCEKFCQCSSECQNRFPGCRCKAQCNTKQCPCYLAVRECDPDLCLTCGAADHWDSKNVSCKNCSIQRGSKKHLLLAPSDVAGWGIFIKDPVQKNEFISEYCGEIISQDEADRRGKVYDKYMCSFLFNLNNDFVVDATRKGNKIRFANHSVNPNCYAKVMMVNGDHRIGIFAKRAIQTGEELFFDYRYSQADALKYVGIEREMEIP
# Chain of wild type PRC2 (wtPRC2) complex (Q15022 whole entry partner): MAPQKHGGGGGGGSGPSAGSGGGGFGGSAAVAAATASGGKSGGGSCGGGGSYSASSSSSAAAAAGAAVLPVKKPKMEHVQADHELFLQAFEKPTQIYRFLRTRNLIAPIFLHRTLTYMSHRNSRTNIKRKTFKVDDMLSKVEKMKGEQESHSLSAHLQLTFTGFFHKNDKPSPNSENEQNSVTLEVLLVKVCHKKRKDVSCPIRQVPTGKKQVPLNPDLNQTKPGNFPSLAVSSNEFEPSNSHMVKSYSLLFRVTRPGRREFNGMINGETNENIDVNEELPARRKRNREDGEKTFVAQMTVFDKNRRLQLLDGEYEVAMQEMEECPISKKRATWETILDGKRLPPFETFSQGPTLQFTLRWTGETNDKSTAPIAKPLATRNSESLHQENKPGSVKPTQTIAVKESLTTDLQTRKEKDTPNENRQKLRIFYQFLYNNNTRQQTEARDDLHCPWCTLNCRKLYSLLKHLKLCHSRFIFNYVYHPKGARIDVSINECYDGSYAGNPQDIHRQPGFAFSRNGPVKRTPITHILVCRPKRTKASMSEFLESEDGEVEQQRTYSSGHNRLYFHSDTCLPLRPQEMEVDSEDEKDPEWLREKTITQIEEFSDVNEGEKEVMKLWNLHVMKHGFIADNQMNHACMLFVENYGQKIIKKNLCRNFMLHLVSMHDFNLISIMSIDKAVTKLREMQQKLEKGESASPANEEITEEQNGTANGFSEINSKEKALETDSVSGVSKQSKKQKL
# Method: as §1
# [3] = molecular target: EED (1-441)-His protein (Homo sapiens (Human), UniProt O75530); experiment: EED-H3K27Me3 peptide competition binding assay by AlphaScreen; conditions: read-out: (a) IC50 EED Alphascreen binding Qualified
# Chain of EED (1-441)-His protein (O75530 whole entry): as the sequence (O75530 whole entry) above
# From the text: EED-H3K27Me3 peptide competition binding assay by AlphaScreen (α-screen)
IC50 [1] [nM],IC50 [2] [nM],IC50 [3] [nM],SMILES
2.6,–,–,"Cc1ncccc1-c1cnc(NCc2c(F)ccc3c2CCO3)n2cnnc12 [Example 2, N-((5-fluoro-2,3-dihydrobenzofuran-4-yl)methyl)-8-(2-methylpyridin-3-yl)-[1,2,4]triazolo[4,3-c]pyrimidin-5-amine]"
–,25.6,15.6,"Fc1ccc2c(c1CNc1ncc(-c3ccnc(N4CCOCC4)c3)c3nncn13)CCO2 [Example 120, N-((5-fluoro-2,3-dihydrobenzofuran-4-yl)methyl)-8-(2-morpholinopyridin-4-yl)-[1,2,4]triazolo[4,3-c]pyrimidin-5-amine]"
–,47,70.9,"Cc1ccc(-c2cnc(NCc3cccc4c3CCO4)n3cnnc23)cn1 [Example 52, N-((2,3-dihydrobenzofuran-4-yl)methyl)-8-(6-methylpyridin-3-yl)-[1,2,4]triazolo[4,3-c]pyrimidin-5-amine]"
–,8.1,4.8,"Cc1cnc(F)cc1-c1cnc(NCc2c(F)ccc3c2CCO3)n2cnnc12 [Example 183, N-((5-fluoro-2,3-dihydrobenzofuran-4-yl)methyl)-8-(2-fluoro-5-methylpyridin-4-yl)-[1,2,4]triazolo[4,3-c]pyrimidin-5-amine]"
–,21.4,18.5,"CC(c1ccc(-c2cnc(NCc3cccc4occc34)n3cnnc23)cc1)N1CCCC1 (stereo not drawn) [Example 210, N-(benzofuran-4-ylmethyl)-8-(4-(1-(pyrrolidin-1-yl)ethyl)phenyl)-[1,2,4]triazolo[4,3-c]pyrimidin-5-amine]"
–,37,30.4,"Cc1nn(C)c(C)c1-c1cnc(NCc2cccc3c2CCO3)n2cnnc12 [Example 24, N-((2,3-dihydrobenzofuran-4-yl)methyl)-8-(1,3,5-trimethyl-1H-pyrazol-4-yl)-[1,2,4]triazolo[4,3-c]pyrimidin-5-amine]"
–,21.1,11.5,"Cc1cc(-c2cnc(NCc3cccc4c3CCO4)n3cnnc23)cnc1S(C)(=O)=O [Example 70, N-((2,3-dihydrobenzofuran-4-yl)methyl)-8-(5-methyl-6-(methylsulfonyl)pyridin-3-yl)-[1,2,4]triazolo[4,3-c]pyrimidin-5-amine]"
–,7.6,4.7,"Cc1cc(-c2cnc(NCc3c(F)ccc4c3CCO4)n3cnnc23)ccn1 [Example 116, N-((5-fluoro-2,3-dihydrobenzofuran-4-yl)methyl)-8-(2-methylpyridin-4-yl)-[1,2,4]triazolo[4,3-c]pyrimidin-5-amine]"
–,12.9,6.3,"CC(O)c1ccc(-c2cnc(NCc3cccc4c3CCO4)n3cnnc23)cn1 (stereo not drawn) [Example 84, 1-(5-(5-(((2,3-dihydrobenzofuran-4-yl)methyl)amino)-[1,2,4]triazolo[4,3-c]pyrimidin-8-yl)pyridin-2-yl)ethanol]"
–,11.2,5.7,"CN(C)C(=O)CCc1ccc(-c2cnc(NCc3cccc4c3CCO4)n3cnnc23)cn1 [Example 135, 3-(5-(5-(((2,3-dihydrobenzofuran-4-yl)methyl)amino)-[1,2,4]triazolo[4,3-c]pyrimidin-8-yl)pyridin-2-yl)-N,N-dimethylpropanamide]"
–,38.7,31.8,"Cc1noc(C)c1-c1cnc(NCc2cccc3c2CCO3)n2cnnc12 [Example 59, N-((2,3-dihydrobenzofuran-4-yl)methyl)-8-(3,5-dimethylisoxazol-4-yl)-[1,2,4]triazolo[4,3-c]pyrimidin-5-amine]"
